How the values were obtained:
MAPKAP-K2(h) = molecular target: T1, MAPKAP-K2(h) (Homo sapiens, UniProt P49137); test: Eurofins KinaseProfiler radiometric kinase assay; format: biochemical; conditions: read-out: MAPKAP-K2(h) % Residual activity
T1 construct: purchased Eurofins KinaseProfiler (Eurofins Cerep)

p70S6K(h) = molecular target: T2, p70S6K(h) (Homo sapiens, UniProt P23443); test: Eurofins KinaseProfiler radiometric kinase assay; format: biochemical; conditions: read-out: p70S6K(h) % Residual activity
T2 construct: purchased Eurofins KinaseProfiler (Eurofins Cerep)

ROCK-I(h) = molecular target: T3, ROCK-I(h) (Homo sapiens, UniProt Q13464); test: Eurofins KinaseProfiler radiometric kinase assay; format: biochemical; conditions: read-out: ROCK-I(h) % Residual activity
T3 construct: purchased Eurofins KinaseProfiler (Eurofins Cerep)

CaMKI(h) = molecular target: T4, CaMKI(h) (Homo sapiens, UniProt Q14012); test: Eurofins KinaseProfiler radiometric kinase assay; format: biochemical; conditions: read-out: CaMKI(h) % Residual activity
T4 construct: purchased Eurofins KinaseProfiler (Eurofins Cerep)

AMPKα1(h) = molecular target: T5, AMPKα1(h) (Homo sapiens, UniProt Q13131); test: Eurofins KinaseProfiler radiometric kinase assay; format: biochemical; conditions: read-out: AMPKα1(h) % Residual activity
T5 construct: purchased Eurofins KinaseProfiler (Eurofins Cerep)

JAK2(h) = molecular target: T6, JAK2(h) (Homo sapiens, UniProt O60674); test: Eurofins KinaseProfiler radiometric kinase assay; format: biochemical; conditions: read-out: JAK2(h) % Residual activity
T6 construct: purchased Eurofins KinaseProfiler (Eurofins Cerep)

[1] = molecular target: T7, PI3 Kinase (p110β/p85α)(h) (Homo sapiens, UniProt P42338); test: Eurofins KinaseProfiler radiometric kinase assay; format: biochemical; conditions: read-out: PI3 Kinase (p110β/p85α)(h) % Residual activity
T7 construct: purchased Eurofins (Eurofins Cerep) KinaseProfiler

MLK1(h) = molecular target: T8, MLK1(h) (Homo sapiens, UniProt P80192); test: Eurofins KinaseProfiler radiometric kinase assay; format: biochemical; conditions: for remaining activity at 10 µM: read-out: MLK1(h) % Residual activity
T8 construct: purchased Eurofins KinaseProfiler (Eurofins Cerep)

PRAK(h) = molecular target: T9, PRAK(h) (Homo sapiens, UniProt Q8IW41); test: Eurofins KinaseProfiler radiometric kinase assay; format: biochemical; conditions: read-out: PRAK(h) % Residual activity
T9 construct: purchased Eurofins KinaseProfiler (Eurofins Cerep)

Rsk1(h) = molecular target: T10, Rsk1(h) (Homo sapiens, UniProt Q15418); test: Eurofins KinaseProfiler radiometric kinase assay; format: biochemical; conditions: for remaining activity at 10 µM: read-out: Rsk1(h) % Residual activity
T10 construct: purchased Eurofins (Eurofins Cerep) KinaseProfiler

ALK(h) = molecular target: T11, ALK(h) (Homo sapiens, UniProt Q9UM73); test: Eurofins KinaseProfiler radiometric kinase assay; format: biochemical; conditions: read-out: ALK(h) % Residual activity
T11 construct: purchased Eurofins KinaseProfiler (Eurofins Cerep)

CDK9/cyclin T1(h) = molecular target: T12, CDK9/cyclin T1(h) (Homo sapiens, UniProt P50750); test: Eurofins KinaseProfiler radiometric kinase assay; format: biochemical; conditions: for remaining activity at 10 µM: read-out: CDK9/cyclin T1(h) % Residual activity
T12 construct: purchased Eurofins KinaseProfiler (Eurofins Cerep)

[2] = test system: neurospheres (NPCs from the subventricular zone); test: Neurosphere differentiation, immunofluorescence of DCX, GFAP, OLIG2; format: cell-based, mice; conditions: 1 μM; 7 days
Text: Lastly, we move forward to evaluate the neuromodulatory profile of selected compounds that involves the capability to polarize the spontaneous differentiation of neurospheres, which potentially can maturate in neurons or macroglia, such as astrocytes and oligodendrocytes. Modulating NPC differentiation is especially relevant under neurodegenerative conditions as it could offer an intriguing opportunity to achieve polyhedric therapeutic effects. Importantly, neuronal differentiation may help to counteract the progressive neuronal loss, while promoting oligodendrocyte phenotype could support remyelination and neuronal function and the astrocytic polarization may aid to foster a neuroprotective profile. Particularly, after 7 days of treatment at 1 μM, in the same experimental conditions previously reported, cells were fixed and stained with different antibody markers such as doublecortin (DCX) for the immature neurons, glial fibrillary acidic protein (GFAP) for astrocytes, and oligodendrocyte transcription factor 2 (OLIG2) for oligodendrocyte precursors for immunofluorescence analysis (Figure a). […] By driving the maturation of astrocytes, compounds 41 and 43 could exert neuroprotection through multiple mechanisms, including the secretion of neurotrophic factors, enhancement of antioxidant defenses, regulation of water balance, ion homeostasis, and glutamate buffering and recycling. Furthermore, astrocytes support the integrity of the blood–brain barrier (BBB) and aid in the refinement of neural networks via synaptic pruning, further reinforcing their role in preserving brain function and structure.
NSCs were initially obtained by SVZ microdissection of 6 months-old C57BL/6N wild-type male mice (Mus musculus) and routinely cultured in suspension in DMEM-F12 (Gibco; ThermoFisher Scientific, Waltham, MA, USA) supplemented with 2 mM glutamine, 10 μg/mL insulin from bovine pancreas (Sigma-Aldrich; St Louis, MO, USA), 20 ng/mL epidermal growth factor (EGF; PeproTech EC, London, UK), 20 ng/mL fibroblast growth factor-2 (FGF2; PeproTech), 1% N2 (ThermoFisher Scientific), 1% B27 (ThermoFisher Scientific), 10 units/mL penicillin, and 10 μg streptomycin.
To assess the effect of compounds of interest in NSCs differentiation, 30 spheres were plated on 13 mm glass coverslips, previously coated with Matrigel matrix (Corning; New York, USA), in complete DMEM F-12 medium, and treated with 1 μM of compounds of interest. After 7DIV, neurospheres were fixed for 20 min with 4% PFA in PBS 0.1% pH 7.4. Fixed neurospheres were permeabilized in 0.1% Triton/PBS and nonspecific sites were blocked for 1 h with 0.1% Triton/PBS and 5% normal goat serum (Sigma-Aldrich; St Louis, MO, USA). Cells were then incubated overnight at 4 °C with the following primary antibodies: Anti-Doublecortin DCX (Abcam, Cambridge, UK), GFAP (Dakopatts), OLIG2 (Santa Cruz Biotechnology), 1:500 dilution in 0.1% Triton/PBS with 2% normal goat serum. After 3 washes in 0.1% Triton/PBS, specific secondary antibodies were added for 2 h at RT in the dark: Donkey anti-Mouse IgG Alexafluor 555 (Abcam, Cambridge, UK), Goat anti-Rabbit IgG Alexafluor 555 (Abcam, Cambridge, UK), 1:1000 dilution in 0.1% Triton/PBS with 2% normal goat serum. Following 3 washes in 0.1% Triton/PBS, nuclei were stained with DAPI (2 μg/mL, Sigma-Aldrich) for 5 min. Glass coverslips were mounted by using Ultracruz Aqueous Mounting Medium with DAPI (Santa Cruz Biotechnology). Neurospheres confocal images were obtained with a Nikon EZ-C1 microscope (60× objective) and the z-stack function (1024 steps and 1 μm thickness layers; 40 total stacks). 3D image reconstruction was performed by using Fiji ImageJ2 software, z-project plugin, and selecting the sum stacks’ function. Fluorescence intensity index was estimated as the ratio of markers’ positive cells intensity/total cells fluorescence intensity stained with DAPI per ROI.

NEK2(h) = molecular target: T13, NEK2(h) (Homo sapiens, UniProt P51955); test: Eurofins KinaseProfiler radiometric kinase assay; format: biochemical; conditions: read-out: NEK2(h) % Residual activity
T13 construct: purchased Eurofins KinaseProfiler (Eurofins Cerep)

CDK6/cyclinD3(h) = molecular target: T14, CDK6/cyclinD3(h) (Homo sapiens, UniProt Q00534); test: Eurofins KinaseProfiler radiometric kinase assay; format: biochemical; conditions: read-out: CDK6/cyclinD3(h) % Residual activity
T14 construct: purchased Eurofins KinaseProfiler (Eurofins Cerep)

PDGFRβ(h) = molecular target: T15, PDGFRβ(h) (Homo sapiens, UniProt P09619); test: Eurofins KinaseProfiler radiometric kinase assay; format: biochemical; conditions: read-out: PDGFRβ(h) % Residual activity
T15 construct: purchased Eurofins KinaseProfiler (Eurofins Cerep)

[3] = molecular target: T16, PI3 Kinase (p110δ/p85α)(h) (Homo sapiens, UniProt O00329); test: Eurofins KinaseProfiler radiometric kinase assay; format: biochemical; conditions: read-out: PI3 Kinase (p110δ/p85α)(h) % Residual activity
T16 construct: purchased Eurofins (Eurofins Cerep) KinaseProfiler

T8 sequence (P80192 whole entry): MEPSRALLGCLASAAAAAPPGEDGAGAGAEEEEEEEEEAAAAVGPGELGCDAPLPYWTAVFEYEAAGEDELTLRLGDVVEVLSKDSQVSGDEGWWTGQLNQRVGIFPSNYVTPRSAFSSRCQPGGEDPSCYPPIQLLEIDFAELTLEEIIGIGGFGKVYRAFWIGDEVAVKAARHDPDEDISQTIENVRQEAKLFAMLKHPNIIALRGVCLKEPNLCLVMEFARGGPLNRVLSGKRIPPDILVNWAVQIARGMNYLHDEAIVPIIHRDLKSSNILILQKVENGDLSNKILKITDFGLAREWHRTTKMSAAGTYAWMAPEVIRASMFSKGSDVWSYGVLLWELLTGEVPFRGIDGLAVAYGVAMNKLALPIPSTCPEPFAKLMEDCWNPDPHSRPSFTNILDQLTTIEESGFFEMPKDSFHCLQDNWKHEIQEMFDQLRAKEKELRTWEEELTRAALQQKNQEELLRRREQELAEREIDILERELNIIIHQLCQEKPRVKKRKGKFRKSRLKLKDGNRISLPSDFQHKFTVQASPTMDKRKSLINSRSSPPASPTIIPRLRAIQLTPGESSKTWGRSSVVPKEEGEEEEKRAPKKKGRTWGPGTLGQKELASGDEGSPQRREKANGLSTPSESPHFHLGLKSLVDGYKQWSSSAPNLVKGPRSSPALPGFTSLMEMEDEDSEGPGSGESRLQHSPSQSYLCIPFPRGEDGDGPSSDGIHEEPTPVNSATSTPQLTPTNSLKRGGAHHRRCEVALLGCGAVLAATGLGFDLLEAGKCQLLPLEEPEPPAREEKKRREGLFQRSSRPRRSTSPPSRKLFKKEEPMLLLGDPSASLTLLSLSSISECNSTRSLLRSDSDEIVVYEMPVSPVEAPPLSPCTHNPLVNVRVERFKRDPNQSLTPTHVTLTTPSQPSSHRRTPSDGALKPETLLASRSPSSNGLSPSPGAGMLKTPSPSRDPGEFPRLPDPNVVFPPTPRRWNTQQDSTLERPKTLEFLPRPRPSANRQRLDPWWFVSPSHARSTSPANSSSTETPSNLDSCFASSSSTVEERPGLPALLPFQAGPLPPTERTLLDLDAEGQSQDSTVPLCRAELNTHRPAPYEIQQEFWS
T12 sequence (P50750 whole entry): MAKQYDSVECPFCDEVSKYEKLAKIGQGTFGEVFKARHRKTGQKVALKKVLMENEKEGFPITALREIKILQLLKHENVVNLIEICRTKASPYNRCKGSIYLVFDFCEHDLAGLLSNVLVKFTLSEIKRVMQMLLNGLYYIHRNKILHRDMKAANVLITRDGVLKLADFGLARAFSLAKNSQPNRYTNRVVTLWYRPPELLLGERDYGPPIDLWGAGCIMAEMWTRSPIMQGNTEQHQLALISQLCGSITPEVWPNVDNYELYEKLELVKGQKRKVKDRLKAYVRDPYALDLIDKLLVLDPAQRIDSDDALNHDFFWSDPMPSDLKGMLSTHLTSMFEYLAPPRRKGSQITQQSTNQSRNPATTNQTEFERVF
T12 sequence (O60563 whole entry partner): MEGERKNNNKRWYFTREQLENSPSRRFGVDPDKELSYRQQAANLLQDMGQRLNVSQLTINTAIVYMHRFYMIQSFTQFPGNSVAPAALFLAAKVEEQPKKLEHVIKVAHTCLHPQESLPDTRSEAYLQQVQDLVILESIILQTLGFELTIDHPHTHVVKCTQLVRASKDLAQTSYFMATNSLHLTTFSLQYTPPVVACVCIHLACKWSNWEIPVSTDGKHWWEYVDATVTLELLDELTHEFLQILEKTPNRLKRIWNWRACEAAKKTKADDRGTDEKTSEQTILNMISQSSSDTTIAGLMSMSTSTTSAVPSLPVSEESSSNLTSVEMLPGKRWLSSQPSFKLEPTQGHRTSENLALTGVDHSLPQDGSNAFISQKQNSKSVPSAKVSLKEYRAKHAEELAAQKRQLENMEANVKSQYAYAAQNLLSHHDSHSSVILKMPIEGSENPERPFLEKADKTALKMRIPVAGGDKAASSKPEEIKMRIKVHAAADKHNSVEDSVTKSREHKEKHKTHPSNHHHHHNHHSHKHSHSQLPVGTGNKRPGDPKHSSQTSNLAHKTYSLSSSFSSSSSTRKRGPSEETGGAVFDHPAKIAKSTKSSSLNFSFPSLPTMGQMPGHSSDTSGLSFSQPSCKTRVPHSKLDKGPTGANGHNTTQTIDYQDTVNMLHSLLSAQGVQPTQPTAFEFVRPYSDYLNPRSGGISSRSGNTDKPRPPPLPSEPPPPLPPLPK
T10 sequence (Q15418 whole entry): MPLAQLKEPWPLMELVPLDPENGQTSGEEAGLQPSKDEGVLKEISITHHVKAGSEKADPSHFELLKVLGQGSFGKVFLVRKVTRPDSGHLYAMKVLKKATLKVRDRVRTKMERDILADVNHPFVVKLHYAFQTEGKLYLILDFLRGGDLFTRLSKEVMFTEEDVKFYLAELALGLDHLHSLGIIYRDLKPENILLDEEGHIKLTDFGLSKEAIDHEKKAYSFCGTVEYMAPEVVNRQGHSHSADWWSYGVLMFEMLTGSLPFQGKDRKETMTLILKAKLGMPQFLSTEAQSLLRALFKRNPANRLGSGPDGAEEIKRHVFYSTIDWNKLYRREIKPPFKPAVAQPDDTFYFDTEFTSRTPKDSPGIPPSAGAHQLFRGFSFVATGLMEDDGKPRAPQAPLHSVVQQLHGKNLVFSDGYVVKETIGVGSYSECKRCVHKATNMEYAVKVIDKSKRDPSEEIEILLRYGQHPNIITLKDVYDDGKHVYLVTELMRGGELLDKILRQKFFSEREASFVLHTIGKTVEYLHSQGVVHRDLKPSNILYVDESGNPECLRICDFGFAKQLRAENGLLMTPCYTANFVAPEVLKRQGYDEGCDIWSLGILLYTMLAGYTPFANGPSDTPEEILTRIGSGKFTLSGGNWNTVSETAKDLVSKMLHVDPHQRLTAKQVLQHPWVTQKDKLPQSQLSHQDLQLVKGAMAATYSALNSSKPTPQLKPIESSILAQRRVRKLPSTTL
T7 sequence (P42338 whole entry): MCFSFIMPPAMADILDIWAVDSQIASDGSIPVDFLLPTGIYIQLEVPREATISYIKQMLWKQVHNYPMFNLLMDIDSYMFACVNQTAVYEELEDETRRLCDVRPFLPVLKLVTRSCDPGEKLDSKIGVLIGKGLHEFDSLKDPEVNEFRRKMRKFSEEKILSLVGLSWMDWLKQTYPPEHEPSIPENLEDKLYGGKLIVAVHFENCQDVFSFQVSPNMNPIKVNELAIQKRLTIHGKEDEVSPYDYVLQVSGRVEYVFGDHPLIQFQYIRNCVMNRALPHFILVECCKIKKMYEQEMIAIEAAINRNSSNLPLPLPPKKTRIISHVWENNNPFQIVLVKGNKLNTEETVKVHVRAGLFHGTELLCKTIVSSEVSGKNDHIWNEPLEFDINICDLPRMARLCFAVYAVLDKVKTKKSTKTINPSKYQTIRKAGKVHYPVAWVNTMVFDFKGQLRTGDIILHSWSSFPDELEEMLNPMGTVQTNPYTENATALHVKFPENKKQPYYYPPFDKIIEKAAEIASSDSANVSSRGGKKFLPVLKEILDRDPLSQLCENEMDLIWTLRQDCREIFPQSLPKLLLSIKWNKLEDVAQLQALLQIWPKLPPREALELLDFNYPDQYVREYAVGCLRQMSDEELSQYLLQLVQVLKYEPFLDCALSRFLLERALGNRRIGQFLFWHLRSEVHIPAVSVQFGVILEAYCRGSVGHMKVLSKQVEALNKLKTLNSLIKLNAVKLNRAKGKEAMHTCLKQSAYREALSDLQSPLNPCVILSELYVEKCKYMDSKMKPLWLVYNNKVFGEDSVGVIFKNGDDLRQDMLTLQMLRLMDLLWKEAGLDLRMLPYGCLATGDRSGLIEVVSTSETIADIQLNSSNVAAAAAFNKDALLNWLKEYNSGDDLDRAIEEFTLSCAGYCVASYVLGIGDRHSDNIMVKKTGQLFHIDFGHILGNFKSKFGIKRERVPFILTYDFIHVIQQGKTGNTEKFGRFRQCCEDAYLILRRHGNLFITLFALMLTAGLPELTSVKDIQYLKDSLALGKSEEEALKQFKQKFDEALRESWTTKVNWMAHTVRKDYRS
T7 sequence (P27986 whole entry partner): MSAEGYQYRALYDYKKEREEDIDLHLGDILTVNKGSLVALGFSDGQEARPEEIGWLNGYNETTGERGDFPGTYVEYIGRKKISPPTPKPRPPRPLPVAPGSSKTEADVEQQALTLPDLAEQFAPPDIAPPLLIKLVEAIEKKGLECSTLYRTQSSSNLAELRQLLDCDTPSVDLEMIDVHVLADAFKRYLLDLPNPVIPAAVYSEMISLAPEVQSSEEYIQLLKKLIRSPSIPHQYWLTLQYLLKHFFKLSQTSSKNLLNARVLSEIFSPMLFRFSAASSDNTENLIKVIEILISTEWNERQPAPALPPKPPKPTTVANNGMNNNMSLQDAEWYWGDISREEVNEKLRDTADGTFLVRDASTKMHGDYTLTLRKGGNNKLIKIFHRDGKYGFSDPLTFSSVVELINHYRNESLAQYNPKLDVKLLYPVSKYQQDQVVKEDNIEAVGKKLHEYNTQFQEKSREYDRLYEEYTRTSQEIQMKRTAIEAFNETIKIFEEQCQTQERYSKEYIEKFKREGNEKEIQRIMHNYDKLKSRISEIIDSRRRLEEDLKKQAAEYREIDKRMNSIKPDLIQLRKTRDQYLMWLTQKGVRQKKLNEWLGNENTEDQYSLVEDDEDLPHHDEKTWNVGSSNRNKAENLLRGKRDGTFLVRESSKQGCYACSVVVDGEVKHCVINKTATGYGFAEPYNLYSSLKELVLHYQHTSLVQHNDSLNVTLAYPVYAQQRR

remaining activity at 10 µM (MAPKAP-K2(h))	remaining activity at 10 µM (p70S6K(h))	remaining activity at 10 µM (ROCK-I(h))	remaining activity at 10 µM (CaMKI(h))	remaining activity at 10 µM (AMPKα1(h))	remaining activity at 10 µM (JAK2(h))	remaining activity at 10 µM [1]	remaining activity at 10 µM (MLK1(h))	remaining activity at 10 µM (PRAK(h))	remaining activity at 10 µM (Rsk1(h))	remaining activity at 10 µM (ALK(h))	remaining activity at 10 µM (CDK9/cyclin T1(h))	remaining activity at 10 µM (NEK2(h))	remaining activity at 10 µM (CDK6/cyclinD3(h))	remaining activity at 10 µM (PDGFRβ(h))	remaining activity at 10 µM [3]	Structure (SMILES)	Differentiation toward astrocytes (GFAP) [2]	Differentiation toward oligodendrocytes (OLIG2) [2]	also measured
33%	50%	93%	89%	54%	26%	89%	8%	64%	44%	38%	50%	56%	86%	95%	66%	Br.Cc1sc(NCc2ccccc2)nc1-c1c[nH]c2ncc(Br)cc12 [Compound 41, N-Benzyl-4-(5-bromo-1H-pyrrolo[2,3-b]pyridin-3-yl)-5-methylthiazol-2-amine Hydrobromide]	notably directed the differentiation toward the astrocytic phenotype	markedly deleterious for oligodendrocytes	inhibition at 10 µM (MLK1(h)): > 90%
45%	14%	76%	80%	60%	46%	94%	12%	97%	3%	61%	5%	84%	90%	93%	97%	Br.Cc1sc(NCc2ccnc(Cl)c2)nc1-c1c[nH]c2ncccc12 [Compound 43, N-((2-Chloropyridin-4-yl)methyl)-5-methyl-4-(1H-pyrrolo[2,3-b]pyridin-3-yl)thiazol-2-amine Hydrobromide]	notably directed the differentiation toward the astrocytic phenotype	this effect was mitigated	inhibition at 10 µM (Rsk1(h)): > 90%; inhibition at 10 µM (CDK9/cyclin T1(h)): > 90%

Reference: publication PMC12406253, “Exploration of the Neuromodulatory Properties of Fyn and GSK-3β Kinases Exploiting 7‑Azaindole-Based Inhibitors” (Journal of Medicinal Chemistry, 2025)
